Series [1] has as its system colony forming leukemia progenitors. The experiment in a line: Acute myeloid leukemia colony forming unit (AML-CFU) assay. It is filed as cell-based, human. As to the method: For the AML-colony forming unit (CFU) assay, 0.9% methylcellulose semi-solid culture was used, containing 15% fetal calf serum (FCS), 15% pretested human plasma, 50 μM β mercaptoethanol, and cytokines at concentrations of 100 ng/mL stem cell factor, 100 ng/mL Flt-3 ligand, 20 ng/mL IL-6, 20 ng/mL GM-CSF, 20 ng/mL IL-3, and 3 U/mL of erythropoietin (Amgen, USA).
Cell Culture: Acute myeloid leukemia cells were plated in 0.9% methylcellulose containing 15% FCS, 15% pretested human plasma, 50 μM β-mercaptoethanol, and cytokines at concentrations of 100 ng/mL stem cell factor, 100 ng/mL Flt-3 ligand, 20 ng/mL IL-6, 20 ng/mL GM-CSF, 20 ng/mL IL-3 and 3 U/mL of erythropoietin (Amgen, USA). Acute myeloid leukemia cells were cultured with DMSO or Compound D (prepared as described below) during suspension and CFU assays.
Assay Procedure: After the AML cultures were incubated with DMSO or Compound D for 12 to 14 days at 37° C., plates were assigned scores for the presence of AML-CFU (CFU defined as >50 cells).
Colony assays were performed in semisolid culture supplemented with growth factors, in the presence of Compound D, or DMSO for control. Colonies were counted at Day 14.

Series [2] in a line: Tolerability and body weight of AML xenograft mice. The series is classed as in vivo, NOD/SCID mice. As to the method: Treatment and Assay Procedure: At Day 21 post AML transplantation, mice were randomly grouped and dosed with either Compound D at 2.5 mg/kg or vehicle (5% N-methyl-2-pyrrolidone [NMP]/45% polyethylene glycol [PEG] 400/50% saline), intraperitoneally twice daily in a dose volume of 50 μL for 4 weeks. All animals were euthanized at scheduled termination (1 day after the last treatment) and bone marrow was collected from the right femur (injected bone marrow) and the left femur and left and right tibia (non-injected bone marrow). Cells isolated from injected or non-injected bone marrow were analyzed by flow cytometry to assess AML engraftment, and were viably frozen for future secondary engraftment analysis.
Based on the pilot data (FIG. 4) in which one of the 2 samples responded to Compound D dosing at 2.5 mg/kg BID for 2 weeks, the duration of dosing was extended to 4 weeks to determine if the mice could tolerate longer Compound D dosing. Mice transplanted with 3 different AML samples were closely monitored for clinical conditions during treatment.

Another series relates to primary AML graft. Put plainly: Pilot in vivo dose study on primary AML graft, 2 weeks dosing. Also on record: species or system NOD/SCID mice. As to the method:
Intrafemoral Transplantation: One day prior to transplantation, NOD/SCID mice were preconditioned by sublethally irradiating (275 cGy) followed by injection with anti-CD122 antibody (200 μg/mouse) to deplete residual host natural killer (NK) cells. On the day of transplantation, viably frozen AML bulk cells (see Section 6.2.1.2) were thawed, counted, and transplanted intrafemorally into the preconditioned mice at a dose of 5×10^6 cells/mouse in a total volume of 30 μL phosphate buffered saline.
Cells harvested from injected and non-injected bone marrow were stained with mouse anti human antibodies as indicated in Section 6.2.1.3. After staining, washed cells were run on an LSRII flow cytometer (BD, USA) with 10,000 to 20,000 events collected for each sample. Collected data were analyzed by FlowJo software (TreeStar, USA) to assess AML engraftment levels in different tissues as determined by the percentage of human CD45+CD33+ cells.
A pilot study was first conducted to determine the potential dosage that can be used to target primary AML graft in NOD/SCID mice. Two AML patient samples (AML 110500 and AML 90191) were tested at 1.25 or 2.5 mg/kg Compound D once daily (QD) or twice daily (BID) intraperitoneally for a total of 4 different dose/schedule groups (FIG. 4). Following pretreatment with sublethal irradiation and anti-CD122 antibody, NOD/SCID mice were intrafemorally transplanted with AML cells that were previously collected from patients and viably frozen. Mice were dosed with Compound D for 2 weeks post transplantation starting on Day 21. […] Percentage of cells positive with myeloid cell marker CD15 were also elevated in both RF and BM of 2.5 mg/kg BID Compound D-dosed mice (FIG. 4, bottom left). […] Based on this pilot study, Compound D was dosed at 2.5 mg/kg BID for the rest of the in vivo experiments.

Where “and” joins values, the source holds several entries; their conditions need not be identical. Identical values can stand only once.

From patent US20220378773A1, “METHODS FOR TREATING LEUKEMIA AND USE OF A LEUKEMIC STEM CELL SIGNATURE TO PREDICT CLINICAL SENSITIVITY TO THERAPIES” (CELGENE CORPORATION, priority 2019, published 2022) come the findings set out here.

As to `O=C1CCC(N2Cc3cc(CNC(=O)C(F)(F)c4ccc(Cl)cc4)ccc3C2=O)C(=O)N1` (stereo not shown) [Compound D, 2-(4-chlorophenyl)-N-((2-(2,6-dioxopiperidin-3-yl)-1-oxoisoindolin-5-yl)methyl)-2,2-difluoroacetamide], the “colony formation, high vs low LSC17 score samples” value in series [1] (3 high and 3 low LSC17 samples) is listed as “reduced colony formation of the samples with high LSC17 scores more than the samples with low LSC17 samples”. In addition, the colony formation entry in series [1] (7 samples that formed colonies, increasing concentration) is “all 7 samples had reduced colony formation”. Further, in series [1] (Section 6.3 samples), the “colony forming leukemia progenitors” value is “inhibited colony forming leukemia progenitors”. In addition, the tolerability entry in series [2] (4 weeks of treatment, mice with different primary AML samples) is listed as “well tolerated”. Further, in series [2] (group mean), the “Body weight, Week 1, average (mean)” value was “Avg = 21.8”; the “Body weight, Week 2, average (mean)” value was “Avg = 21.7”; the “Body weight, Week 3, average (mean)” value is on record as “Avg = 21.6”. In series [2] (individual mice), the “Body weight, Week 1” value is 21 g (5×) and 23 g (2×) and 20 g (2×) and 22 g (4×) and 24 g (2×); the “Body weight, Week 2” value was 22 g (3×) and 20 g (3×) and 24 g (2×) and 23 g (3×) and 19 g and 21 g (3×); the “Body weight, Week 3” value is 23 g and 21 g (4×) and 19 g and 22 g (5×) and 24 g (2×) and 20 g (2×). In series [2] (mouse transplanted with Patient Sample 120860, last day of 4-week treatment), the paralysis / death entry is on record as “Only one Compound D-treated mouse was found paralyzed”. The grafted cells entry in the series on primary AML graft (AML 90191) is “largely not affected”. In the series with primary AML graft (AML 110500, 2.5 mg/kg BID), the “CD34+ primitive leukemic cells in RF and BM” value was “decreased the most”; the “percentage of CD15 positive cells in RF and BM” value is “elevated”. For the same compound, the “AML grafts in RF and BM” value in the series on primary AML graft (AML 110500, 2.5 mg/kg QD and BID) is reported as “significantly decreased”. In addition, the AML graft entry in the series on primary AML graft (AML 110500, 1.25 or 2.5 mg/kg QD or BID IP, 2 weeks, vs vehicle) is listed as “reduced AML graft of patient sample AML 110500 cells in a dose-dependent manner”.
